For one experiment, the system named is Arabidopsis plants. The experiment is described as follows: Osmotic potential measurements after ABA spray. It counts as in vivo. The note with it: developing bud tissue, 20 μM ABA spray, 2 d. The method, then: Plant samples were collected in a plastic centrifuge tube filter (without membrane; Corning Costar Spin-X) and then, quick-frozen in liquid nitrogen. After thawing, the sap was collected by centrifuging at 16,000×g for 4 min to remove insoluble material. A 10-μL volume of cell sap was measured using a vapor pressure osmometer (Model 5200; Wescor). Solute concentration was converted to osmotic potential (Ψπ) using the van't Hoff law: Ψπ=−RTc, where c is the molar solute concentration (osmolality; moles kilogram-1), R is the gas constant (0.08314 L Bar mol−1 K−1), and T is the temperature in Kelvin.

Another experiment deals with SAG12-LUC expression. The experiment is described as follows: SAG12-LUC transient expression assay in Arabidopsis protoplasts. It counts as cell-based. The following applies: snrk2.2/3/6 triple-mutant protoplasts, ABA treatment. The method, then: Assays for transient expression in protoplasts were performed as described (18). All steps were performed at room temperature. SAG12-LUC and ORE1L-LUC were used as the senescence-responsive reporters, and ZmUBQ-GUS was used as the internal control. After transfection, protoplasts were incubated in washing and incubation solution without ABA or with 5 μM ABA under light for 16 h.

Experiment [1] has as its system ORE1 and AtNAP expression. Put plainly: Quantitative RT-PCR of ORE1 and AtNAP in mature leaves after ABA. It counts as in vivo, Arabidopsis. The note with it: 20 μM ABA spray. The method, then: Northern blot and real-time PCR were performed as reported (18). For Northern blot analysis, the probe was labeled with the PCR-DIG Probe Synthesis Kit (Roche). RD29A-F (SEQ ID NO. 83) and PYL9-R (SEQ ID NO. 84) were used for the PCR. For real-time PCR, reactions were performed with iQ SYBR Green Supermix (BioRad). The primers used include SEQ ID NOs. 71 to 80. Quantitative RT-PCR was conducted on mature leaves of 4-wk-old Arabidopsis plants that were growing in soil and sprayed with 20 μM ABA.

The test system of experiment [2] is pRD29A::PYL9 transgenic plants. The experiment is described as follows: Drought resistance of pRD29A::PYL9 transgenic Arabidopsis with ABA treatment. Type of experiment: in vivo. The following applies: 10 μM ABA applied once after water withheld for 12 d, plants after flowering. On the procedure: Soil water content percentage during drought treatment in Arabidopsis was measured as described (27). We used 591-mL pots (48-7214; 04.00 SQ TL TW; Myers Industries) with 130 g (˜62 g oven dry weight) Fafard Super-Fine Germinating Mix Soil (Sungro Horticultures) per pot. After being saturated with water, the total weight of the wet soil was ˜440 g per pot. Pots were covered with plastic film to reduce water loss from soil surface. Three-week-old plants (four plants per pot) were subjected to drought stress by withholding water. Plants were sprayed with 2 mL 10 μM ABA plus 0.2% Tween-20 per pot after water was withheld for 12 d. Soil water content percentage was computed as total weight minus dry soil weight divided by water weight before drought according to the work (27). For drought treatment on rice, we measured the relative water content using the Soil Temperature/Moisture Meter L99-TWS-1 (Shanghai Fotel Precise Instrument Co., Ltd) following the work (40). Before drought treatment, the mixed vermiculite and sandy soil (Zhongfang Horticulture Co.) for rice was saturated with water, and the relative soil water content before drought was set as 100%. Rice plants at the four-leaf stage were subjected to drought by withholding water for 14 d, and the relative soil water content after the drought treatment was ˜20%.

With `CC1=CC(=O)CC(C)(C)[C@@]1(O)/C=C/C(C)=C\C(=O)O` [ABA, abscisic acid], in the experiment on Arabidopsis plants, the osmotic potential entry is given as “reduced”. Moreover, the SAG12-LUC expression entry with SAG12-LUC expression was “not enhanced”. In experiment [1], the “expression of ORE1 and AtNAP” value was “induced”. Moreover, the drought resistance entry in experiment [2] is given as “significantly increased”.
